In patent publication US20190031780A1, “COMPOSITIONS AND METHODS FOR TARGETING CANCER STEM CELLS” (Siamab Therapeutics, Inc., priority 2016, published 2019):

B1: S3F: anti-STn IgG2a antibody: mouse 3F1 variable domains (SEQ ID NO: 1, 2) with mouse IgG2a constant domains; full chains SEQ ID NO: 7, 8 (antibody)
heavy: QVQLQQSDAELVKPGASVKISCKASGYTFTDHAIHWVKQKPEQGLDWIGYISPGNGDIKYNEKFKDKVTLTADKSSSTACMHLNSLTSEDSAVYFCKRSLLALDYWGQGTTLTVSSAKTTAPSVYPLAPVCGDTTGSSVTLGCLVKGYFPEPVTLTWNSGSLSSGVHTFPAVLQSDLYTLSSSVTVTSSTWPSQSITCNVAHPASSTKVDKKIEPRGPTIKPCPPCKCPAPNLLGGPSVFIFPPKIKDVLMISLSPIVTCVVVDVSEDDPDVQISWFVNNVEVHTAQTQTHREDYNSTLRVVSALPIQHQDWMSGKEFKCKVNNKDLPAPIERTISKPKGSVRAPQVYVLPPPEEEMTKKQVTLTCMVTDFMPEDIYVEWTNNGKTELNYKNTEPVLDSDGSYFMYSKLRVEKKNWVERNSYSCSVVHEGLHNHHTTKSFSRTPGK
light: DIVMTQSHKFMSTSVGDRVSITCKASQDVGTNIAWYQQKPGRSPKVLIYSASTRHTGVPDRFTGSGSGTDFTLTISNVQSEDLTDYFCQQYSSFPLTFGVGTKLELKRADAAPTVSIFPPSSEQLTSGGASVVCFLNNFYPKDINVKWKIDGSERQNGVLNSWTDQDSKDSTYSMSSTLTLTKDEYERHNSYTCEATHKTSTSPIVKSFNRNEC
B2: SIA101: anti-STn IgG2a antibody: SIA101 variable domains (SEQ ID NO: 3, 4) with mouse IgG2a constant domains (antibody, V domains shown)
VH: QVQLQQSDXELVKPGASVKISCKASGYTFTDHAIHWVKQKPEQGLEWIGYFSPGNDDIKYNEKFRGKATLTADKSSSTAYMQLNSLSSDDSAVYFCKRSLSTPYWGQGTLXTVSA
VL: DIVMTQSPSSLTVTAGEKVTMSCKSSQSLLNRGNHKNYLTWYRQKPGLPPKLLIYWASTRESGVPDRFTGSGSGTDFALTISSVQAEDLAVYYCQNDYTYPYTFGGGTKLEIKR
modifications: not fully specified; mouse IgG2a constant domains; MOD_RES (9)..(9) Any amino acid; MOD_RES (111)..(111) Any amino acid

Key:
OVCAR4 cells = assay: Relative frequency of OVCAR4 STn/CD133 subpopulations after chemotherapy treatment (Example 13); format: cell-based, human; details: vs vehicle
Protocol: The potential for anti-STn antibodies to target stem cells after treatment of OVCAR4 cells with chemotherapy agents (paclitaxel and/or carboplatin) was evaluated. The relative frequency of the OVCAR4 subpopulations observed following treatment with either vehicle (shaded) or the indicated chemotherapy regimen is shown in FIG. 6.

OVCAR3 cells = assay: OVCAR3 cell viability by MTT assay, chemotherapeutic vs antibody treatment (Example 15); format: cell-based, human; details: 72 hours, increasing doses, normalized to vehicle control
Protocol: The viability of OVCAR3 cells grown in culture was assessed following treatment with carboplatin, paclitaxel, carboplatin and paclitaxel, or S3F (FIG. 7). OVCAR3 cells were cultured for 72 hours with the indicated concentrations of paclitaxel, carboplatin, paclitaxel/carboplatin combination, or S3F. Relative cell viability was determined by measuring cellular metabolic activity using an MTT assay (EMD Millipore, Billerica, Mass.). For each experiment, all values were normalized to the vehicle control.

STn+CD133+ OV90 cells = assay: Cell viability of OV90 cells by MTT assay, chemotherapeutic vs antibody treatment (Example 6); format: cell-based, human; details: OV90 cells cultured 72 to 144 hours; normalized to vehicle only control
Protocol: STn+CD133+ OV90 and CSC sub-fractions were treated with different concentrations of paclitaxel (FIG. 2A), carboplatin (FIG. 2B), paclitaxel and carboplatin (FIG. 2C) or with unconjugated anti-STn antibody S3F (FIG. 2D). OV90 cells were cultured for 72 to 144 hours with the indicated chemotherapeutic drug or antibody concentrations and cell viability was analyzed by MTT assay. All values were normalized to a vehicle only control.

ovarian cancer tissue = assay: Immunohistochemical staining of ovarian cancer tissue sections (Example 9); details: primary antibody; compared to normal IgG and no primary antibody
Description: Tissue sections from ovarian cancer tissue were subjected to immunohistochemical staining to identify cells expressing STn using S3F antibody as a primary antibody. Bound antibody was detected using a peroxidase-based secondary detection system.

[1] = tested on: STn positive cells in OVCAR3 xenograft tissues; assay: STn expression in xenograft tissues by flow cytometry at end of OVCAR3 in vivo study (Example 20); set-up: species or system NOD/SCID mice; details: 5 mg/kg weekly
Protocol: OVCAR3 cells were injected into NOD/SCID mice to generate tumor xenografts. Once a sufficient number of mice developed tumor volumes ranging from 200-500 mm^3, mice were randomized into 5 groups (about 6-7 mice/group) with essentially equivalent group mean tumor volumes. Each group received weekly treatments according to the following Table.
At the end of the study, xenograft tissues were processed to a single cell suspension and assessed for STn expression by flow cytometry. Around 80% of the cells in tissues from groups 1, 4, and 5 were STn positive, while the cells from group 2 mice were less than 40% STn positive (a reduction of about 50%) and cells from group 3 mice were around 10% STn positive (a reduction of greater than 85%).

| Molecule | relative frequency of STn-negative subpopulations (STn-/CD133- and STn-/CD133+) (OVCAR4 cells) | relative frequency of STn-positive subpopulations (STn+/CD133- and STn+/CD133+) (OVCAR4 cells) | relative cell viability (metabolic activity, MTT assay) (OVCAR3 cells) | cell viability (MTT assay) (STn+CD133+ OV90 cells) | immunohistochemical staining of STn-expressing cells (ovarian cancer tissue) | STn positive cells in xenograft tissues [1] |
| --- | --- | --- | --- | --- | --- | --- |
| N.N.O=C([O-])C1(C(=O)[O-])CCC1.[Pt+2] [carboplatin] | decrease | increase | decreased cell viability | significantly reduced | – | – |
| CC(=O)O[C@H]1C(=O)[C@@]2(C)[C@H]([C@H](OC(=O)c3ccccc3)[C@]3(O)C[C@H](OC(=O)[C@H](O)[C@@H](NC(=O)c4ccccc4)c4ccccc4)C(C)=C1C3(C)C)[C@]1(OC(C)=O)CO[C@@H]1C[C@@H]2O [paclitaxel] | decrease | increase | decreased cell viability | significantly reduced | – | – |
| B1 | – | – | no loss of viability | no significant effect | Numerous cells showed positive staining | Around 80% |
| B2 | – | – | – | – | – | Around 80% |
